Where two headings read alike, the source gives them in different places. Marks after values point to notes of the source that are not given here.
How the values were obtained:
[1] = previously studied MILs, Table 2, cited from earlier work
[2] = SQUID magnetometer; previously studied MILs, Table 2; cited from earlier work
[3] = previously referenced MILs, cited from earlier work
[4] = GC-FID; previously referenced MILs; cited from earlier work
[5] = Magnetic properties by SQUID magnetometer; type: physicochemical; details: applied magnetic field H=20 kOe; Curie-Weiss fit
Procedure: Magnetic properties were analyzed using a magnetic susceptibility balance (MSB, Sherwood Scientific, Cambridge, UK) and a Quantum Design Superconducting Quantum Interference Device (SQUID) magnetometer (MPMS XL-7). The magnetic properties of transition metal MILs were further studied using a SQUID magnetometer to confirm their paramagnetic nature as well as if any magnetic transition occurs in the samples.
The magnetic properties of transition metal MILs were further studied using a SQUID magnetometer to confirm their paramagnetic nature as well as if any magnetic transition occurs in the samples.
The calculated μeff of 5.21μB for the [Ni(C6-DGE)6][Ni(hfacac)3]2 MIL (FIG. 12A) from SQUID matches quite well with the theoretical μtheo value (5.31μB, TABLE 1) and also with that obtained from MSB measurements (5.48μB).

[6] = acetone, chloroform, dichloromethane, acetonitrile, methanol, ethanol, diethyl ether, ethyl acetate, isopropanol at 20% (w/v)
[7] = hexane, heptane, benzene, toluene at 10% (w/v)
[8] = hexane, heptane, benzene, toluene at 20% (w/v)

Question: For `CCCCCCCCN(CCCCCCCC)C(=O)COCC(=O)N(CCCCCCCC)CCCCCCCC.CCCCCCCCN(CCCCCCCC)C(=O)COCC(=O)N(CCCCCCCC)CCCCCCCC.CCCCCCCCN(CCCCCCCC)C(=O)COCC(=O)N(CCCCCCCC)CCCCCCCC.O=C(C=C([O-])C(F)(F)F)C(F)(F)F.O=C(C=C([O-])C(F)(F)F)C(F)(F)F.O=C(C=C([O-])C(F)(F)F)C(F)(F)F.O=C(C=C([O-])C(F)(F)F)C(F)(F)F.O=C(C=C([O-])C(F)(F)F)C(F)(F)F.O=C(C=C([O-])C(F)(F)F)C(F)(F)F.O=C(C=C([O-])C(F)(F)F)C(F)(F)F.O=C(C=C([O-])C(F)(F)F)C(F)(F)F.O=C(C=C([O-])C(F)(F)F)C(F)(F)F.O=C(C=C([O-])C(F)(F)F)C(F)(F)F.O=C(C=C([O-])C(F)(F)F)C(F)(F)F.O=C(C=C([O-])C(F)(F)F)C(F)(F)F.[Ho+3].[Ho+3].[Ho+3].[Ho+3]` [[Ho(TODGA)3][Ho(hfacac)4]3], which Viscosity ([1]; reported at 19.9° C.) is on record?
Answer: The Viscosity was 10,530^e.

Question: What about the Effective magnetic moment [2] of the same molecule?
Answer: The Effective magnetic moment was 20.86^f.

Question: What about the Solubility [3, 6] of the same molecule?
Answer: Its Solubility is “S^b (soluble in acetone, chloroform, dichloromethane, acetonitrile, methanol, ethanol, diethyl ether, ethyl acetate, and isopropanol at 20% (w/v).)”.

Question: What about the Solubility [3, 7] of the same molecule?
Answer: The Solubility was “S^a (soluble in hexane, heptane, benzene, and toluene at 10% (w/v).)”.

Question: What about the Solubility [3, 8] of the same molecule?
Answer: The Solubility was “S^c (soluble in hexane, heptane, benzene, and toluene at 20% (w/v).)”.

Question: What about the Solubility ([3]; water at 0.01% (w/v)) of the same molecule?
Answer: Its Solubility is “S^f (insoluble in water at 0.01% (w/v).)”.

Question: What about the “Onset of MIL volatilization (° C.)^1” value [4] of the same molecule?
Answer: Its value is 192 °C.

Question: For `CCCCCCOC(=O)COCC(=O)OCCCCCC.CCCCCCOC(=O)COCC(=O)OCCCCCC.CCCCCCOC(=O)COCC(=O)OCCCCCC.CCCCCCOC(=O)COCC(=O)OCCCCCC.CCCCCCOC(=O)COCC(=O)OCCCCCC.CCCCCCOC(=O)COCC(=O)OCCCCCC.O=C(C=C([O-])C(F)(F)F)C(F)(F)F.O=C(C=C([O-])C(F)(F)F)C(F)(F)F.O=C(C=C([O-])C(F)(F)F)C(F)(F)F.O=C(C=C([O-])C(F)(F)F)C(F)(F)F.O=C(C=C([O-])C(F)(F)F)C(F)(F)F.O=C(C=C([O-])C(F)(F)F)C(F)(F)F.[Mn+2].[Mn+2].[Mn+2]` [MIL 3], which “μeff from SQUID” value [5] is on record?
Answer: Its value is 8.31 μB.

Question: Which “μeff from SQUID” value [5] does the source give for `CCCCCCOC(=O)COCC(=O)OCCCCCC.CCCCCCOC(=O)COCC(=O)OCCCCCC.CCCCCCOC(=O)COCC(=O)OCCCCCC.CCCCCCOC(=O)COCC(=O)OCCCCCC.CCCCCCOC(=O)COCC(=O)OCCCCCC.CCCCCCOC(=O)COCC(=O)OCCCCCC.O=C(C=C([O-])C(F)(F)F)C(F)(F)F.O=C(C=C([O-])C(F)(F)F)C(F)(F)F.O=C(C=C([O-])C(F)(F)F)C(F)(F)F.O=C(C=C([O-])C(F)(F)F)C(F)(F)F.O=C(C=C([O-])C(F)(F)F)C(F)(F)F.O=C(C=C([O-])C(F)(F)F)C(F)(F)F.[Ni+2].[Ni+2].[Ni+2]` [MIL 2] here?
Answer: The value was 5.21 μB.

Question: For `CCCCCCCCN(CCCCCCCC)C(=O)COCC(=O)N(CCCCCCCC)CCCCCCCC.CCCCCCCCN(CCCCCCCC)C(=O)COCC(=O)N(CCCCCCCC)CCCCCCCC.O=C(C=C([O-])C(F)(F)F)C(F)(F)F.O=C(C=C([O-])C(F)(F)F)C(F)(F)F.O=C(C=C([O-])C(F)(F)F)C(F)(F)F.O=C(C=C([O-])C(F)(F)F)C(F)(F)F.O=C(C=C([O-])C(F)(F)F)C(F)(F)F.O=C(C=C([O-])C(F)(F)F)C(F)(F)F.[Ni+2].[Ni+2].[Ni+2]` [[Ni(TODGA)2][Ni(hfacac)3]2], which Viscosity ([1]; reported at 19.9° C.) is on record?
Answer: The Viscosity was 33,830^e.

Question: What about the Effective magnetic moment [2] of the same molecule?
Answer: The Effective magnetic moment was 11.79^f.

Question: And the Solubility [3, 6]?
Answer: Its Solubility is “S^b (soluble in acetone, chloroform, dichloromethane, acetonitrile, methanol, ethanol, diethyl ether, ethyl acetate, and isopropanol at 20% (w/v).)”.

Question: And the Solubility [3, 7]?
Answer: Its Solubility is “S^a (soluble in hexane, heptane, benzene, and toluene at 10% (w/v).)”.

Question: And the Solubility ([3]; water at 0.01% (w/v))?
Answer: Its Solubility is “S^f (insoluble in water at 0.01% (w/v).)”.

Question: What about the “Onset of MIL volatilization (° C.)^1” value [4] of the same molecule?
Answer: Its value is 235 °C.

Question: Which Viscosity ([1]; reported at 23.7° C.) does the source give for `CCCCCCCCCCCCCC[P+](CCCCCC)(CCCCCC)CCCCCC.O=C(C=C([O-])C(F)(F)F)C(F)(F)F.O=C(C=C([O-])C(F)(F)F)C(F)(F)F.O=C(C=C([O-])C(F)(F)F)C(F)(F)F.[Mn+2]` [[P66614][Mn(hfacac)3]] here?
Answer: The Viscosity was 401.8^c.

Question: And the Effective magnetic moment [2]?
Answer: The Effective magnetic moment was 5.80^f.

Question: And the Solubility [3, 6]?
Answer: Its Solubility is “S^b (soluble in acetone, chloroform, dichloromethane, acetonitrile, methanol, ethanol, diethyl ether, ethyl acetate, and isopropanol at 20% (w/v).)”.

Question: And the Solubility [3, 7]?
Answer: Its Solubility is “S^a (soluble in hexane, heptane, benzene, and toluene at 10% (w/v).)”.

Question: And the Solubility ([3]; water at 0.01% (w/v))?
Answer: Its Solubility is “S^f (insoluble in water at 0.01% (w/v).)”.

Question: What about the “Onset of MIL volatilization (° C.)^1” value [4] of the same molecule?
Answer: The value was 155 °C.

Question: Which Viscosity ([1]; reported at 23.7° C.) does the source give for `CCCCCCCCCCCCCC[P+](CCCCCC)(CCCCCC)CCCCCC.O=C(C=C([O-])C(F)(F)F)C(F)(F)F.O=C(C=C([O-])C(F)(F)F)C(F)(F)F.O=C(C=C([O-])C(F)(F)F)C(F)(F)F.[Ni+2]` [[P66614][Ni(hfacac)3]] here?
Answer: The Viscosity was 927.9^c.

Question: And the Effective magnetic moment [2]?
Answer: Its Effective magnetic moment is 2.80^f.

Question: And the Solubility [3, 6]?
Answer: Its Solubility is “S^b (soluble in acetone, chloroform, dichloromethane, acetonitrile, methanol, ethanol, diethyl ether, ethyl acetate, and isopropanol at 20% (w/v).)”.

Question: And the Solubility [3, 7]?
Answer: Its Solubility is “S^a (soluble in hexane, heptane, benzene, and toluene at 10% (w/v).)”.

Question: And the Solubility ([3]; water at 0.01% (w/v))?
Answer: The Solubility was “S^f (insoluble in water at 0.01% (w/v).)”.

Question: What about the “Onset of MIL volatilization (° C.)^1” value [4] of the same molecule?
Answer: The value was 225 °C.

Question: For `CCCCCCCCCCCCCC[P+](CCCCCC)(CCCCCC)CCCCCC.O=C(C=C([O-])C(F)(F)F)C(F)(F)F.O=C(C=C([O-])C(F)(F)F)C(F)(F)F.O=C(C=C([O-])C(F)(F)F)C(F)(F)F.[Co+2]` [[P66614][Co(hfacac)3]], which Viscosity ([1]; reported at 23.7° C.) is on record?
Answer: Its Viscosity is 575.8^c.

Question: What about the Effective magnetic moment [2] of the same molecule?
Answer: Its Effective magnetic moment is 4.30^f.

Question: And the Solubility [3, 6]?
Answer: Its Solubility is “S^b (soluble in acetone, chloroform, dichloromethane, acetonitrile, methanol, ethanol, diethyl ether, ethyl acetate, and isopropanol at 20% (w/v).)”.

Question: What about the Solubility [3, 7] of the same molecule?
Answer: Its Solubility is “S^a (soluble in hexane, heptane, benzene, and toluene at 10% (w/v).)”.

Question: And the Solubility ([3]; water at 0.01% (w/v))?
Answer: The Solubility was “S^f (insoluble in water at 0.01% (w/v).)”.

Question: And the “Onset of MIL volatilization (° C.)^1” value [4]?
Answer: The value was 130 °C.

Question: What does the source list for `CCCCCCCCN(CCCCCCCC)C(=O)COCC(=O)N(CCCCCCCC)CCCCCCCC.CCCCCCCCN(CCCCCCCC)C(=O)COCC(=O)N(CCCCCCCC)CCCCCCCC.CCCCCCCCN(CCCCCCCC)C(=O)COCC(=O)N(CCCCCCCC)CCCCCCCC.O=C(C=C([O-])C(F)(F)F)C(F)(F)F.O=C(C=C([O-])C(F)(F)F)C(F)(F)F.O=C(C=C([O-])C(F)(F)F)C(F)(F)F.O=C(C=C([O-])C(F)(F)F)C(F)(F)F.O=C(C=C([O-])C(F)(F)F)C(F)(F)F.O=C(C=C([O-])C(F)(F)F)C(F)(F)F.O=C(C=C([O-])C(F)(F)F)C(F)(F)F.O=C(C=C([O-])C(F)(F)F)C(F)(F)F.O=C(C=C([O-])C(F)(F)F)C(F)(F)F.O=C(C=C([O-])C(F)(F)F)C(F)(F)F.O=C(C=C([O-])C(F)(F)F)C(F)(F)F.O=C(C=C([O-])C(F)(F)F)C(F)(F)F.[Dy+3].[Dy+3].[Dy+3].[Dy+3]` [[Dy(TODGA)3][Dy(hfacac)4]3]?
Answer: Viscosity ([1]; reported at 19.9° C.): 9,210^e; Effective magnetic moment [2]: 20.00^f; Solubility [3, 6]: S^b (soluble in acetone, chloroform, dichloromethane, acetonitrile, methanol, ethanol, diethyl ether, ethyl acetate, and isopropanol at 20% (w/v).); Solubility [3, 7]: S^a (soluble in hexane, heptane, benzene, and toluene at 10% (w/v).); Solubility [3, 8]: S^c (soluble in hexane, heptane, benzene, and toluene at 20% (w/v).); Solubility ([3]; water at 0.01% (w/v)): S^f (insoluble in water at 0.01% (w/v).); Onset of MIL volatilization (° C.)^1 [4]: 175 °C

Question: For `CCCCCCCCN(CCCCCCCC)C(=O)COCC(=O)N(CCCCCCCC)CCCCCCCC.CCCCCCCCN(CCCCCCCC)C(=O)COCC(=O)N(CCCCCCCC)CCCCCCCC.CCCCCCCCN(CCCCCCCC)C(=O)COCC(=O)N(CCCCCCCC)CCCCCCCC.O=C(C=C([O-])C(F)(F)F)C(F)(F)F.O=C(C=C([O-])C(F)(F)F)C(F)(F)F.O=C(C=C([O-])C(F)(F)F)C(F)(F)F.O=C(C=C([O-])C(F)(F)F)C(F)(F)F.O=C(C=C([O-])C(F)(F)F)C(F)(F)F.O=C(C=C([O-])C(F)(F)F)C(F)(F)F.O=C(C=C([O-])C(F)(F)F)C(F)(F)F.O=C(C=C([O-])C(F)(F)F)C(F)(F)F.O=C(C=C([O-])C(F)(F)F)C(F)(F)F.O=C(C=C([O-])C(F)(F)F)C(F)(F)F.O=C(C=C([O-])C(F)(F)F)C(F)(F)F.O=C(C=C([O-])C(F)(F)F)C(F)(F)F.[Gd+3].[Gd+3].[Gd+3].[Gd+3]` [[Gd(TODGA)3][Gd(hfacac)4]3], which Viscosity ([1]; reported at 19.9° C.) is on record?
Answer: The Viscosity was 13,640^e.

Question: And the Effective magnetic moment [2]?
Answer: Its Effective magnetic moment is 14.90^f.

Question: What about the Solubility [3, 6] of the same molecule?
Answer: The Solubility was “S^b (soluble in acetone, chloroform, dichloromethane, acetonitrile, methanol, ethanol, diethyl ether, ethyl acetate, and isopropanol at 20% (w/v).)”.

Question: What about the Solubility [3, 7] of the same molecule?
Answer: The Solubility was “S^a (soluble in hexane, heptane, benzene, and toluene at 10% (w/v).)”.

Question: And the Solubility [3, 8]?
Answer: The Solubility was “S^c (soluble in hexane, heptane, benzene, and toluene at 20% (w/v).)”.

Question: And the Solubility ([3]; water at 0.01% (w/v))?
Answer: The Solubility was “S^f (insoluble in water at 0.01% (w/v).)”.

Question: What about the “Onset of MIL volatilization (° C.)^1” value [4] of the same molecule?
Answer: Its value is 183 °C.
